This is an account of results in patent US20250288576A1, “SPECIFIC TETRADENTATE COPPER CHELATORS AS ANTICANCER AGENTS” (Guangdong University of Technology, priority 2024, published 2025).

The test system of one data set is metastatic melanoma A375. Kind of data set: MTT cell viability assay, A375. The settings on record: Homo sapiens, A-375, 48 h incubation, mean ± SD of at least three experiments. In kind it is cell-based. The method, then:
(§1) The cytotoxicity of several compounds from the TDMQ series, especially TDMQ20, was evaluated on several human cancer cell lines. The clinically used anticancer drug 5-fluorouracil (5-FU) was used as comparator.
(§2) The targeted human cancer lines were 1) the metastatic melanoma A375, 2) the non-small cell lung adenocarcinoma A549, 3) the melanoma COLO-829, 4) the cervical cancer HeLa, 5) the hepatocellular carcinoma HepG2. The human immortalized keratinocyte cell line HaCaT was used as non-cancer reference cell line.
(§3) The MTT test was used to measure the cell viability. In this test, the applied colorless tetrazolium salt is reduced by mitochondrial succinate dehydrogenase, thus producing the violet formazan derivative that is quantified by UV-visible spectrometry at 570 nm.

Data set [1] relates to HeLa cells. Nature of the data set: Wound healing assay (scratch assay). In kind it is cell-based, human. The settings on record: 14.5 μM, 24 h. The method, then:
(A) Representative images of wounds formed by HeLa cells after treatment with TDMQ20. (B) Quantitative analysis of the wound closure upon treatment by TDMQ20. ****p<0.0001 vs. control. “Control” stands for untreated cells. Scale bar: 250 μm.
Wound healing assay (or “scratch assay”). The migratory ability of Hela cells in the presence of TDMQ20 was evaluated using the wound healing assay monitored by optical microscopy. Measurement after 24 h of the width of the “wound” created in a cell monolayer quantify the migration rate of the cells to close the wound. This method mimics cell migration during wound healing in vivo. For cancer cells, cell migration is involved in several processes such as tumor invasion, neo-angiogenesis and metastasis (X. Wang et al., BMC Pharmacol. Toxicol. 2019, 20, 4).

In data set [2] the test system is HeLa cells. Kind of data set: Apoptosis, annexin V-FITC/PI flow cytometry. Type of data set: cell-based, human. The settings on record: 48 h incubation. How it is done: FIG. 3. Pro-apoptotic activity of TDMQ20 on HeLa cells after 48 h of incubation. (A) Quantitative analysis of necrotic cells (quadrant Q1), early apoptotic cells (quadrant Q2), advanced apoptotic cells (quadrant Q3) and non-apoptotic cells (quadrant Q4), using annexin V/propidium iodide (PI) staining and detection by flow cytometry. “Control” stands for untreated cells. (B) Histograms represent the proportion of apoptotic cells (Q2+Q3) within the flow cytometry charts; “ns” stands for p>0.05, ****p<0.0001 vs. control.
The pro-apoptotic activity of TDMQ20 in Hela cells was evaluated after 48 h of incubation with the drug, using the annexin V-FITC/PI method (FITC and PI stand for fluoresceine-5-isothiocyanate and propidium iodide, respectively). After staining, live cells show little or no fluorescence (annexin V−/PI−), early apoptosis cells show green fluorescence (annexin V+/PI−), late apoptosis cells and necrosis cells show red and green fluorescence (annexin V+/PI+). Cells were detected by flow cytometry. IDEAS software was used for acquisition of data and FlowJo v. X software was used for analysis of data. The total proportion of apoptotic cells, including early apoptosis (quadrants Q2) or late apoptosis (quadrants Q3) or necrosis (quadrants Q1), accounted for 51%, 15% and 9% when HeLa cells were treated with TDMQ20 at the concentration of […], 7.3 μM and 3.7 μM, respectively. So, TDMQ20 induced the apoptosis of HeLa cells in a dose-dependent manner.
(In general: In flow cytometry, cells or beads pass a laser one at a time.)

The next data set relates to cervical cancer HeLa. Kind of data set: MTT cell viability assay, HeLa. In kind it is cell-based, human. As to conditions: 48 h incubation, mean ± SD of at least three experiments. The method, then:
as §1, §2, §3
A general note: Tetrazolium assays rely on reduction of a dye to a coloured formazan, in cell work by metabolically active cells.

Data set [3] relates to hepatocellular carcinoma HepG2. Kind of data set: MTT cell viability assay, HepG2. In kind it is cell-based, human. The settings on record: 48 h incubation, mean ± SD of at least three experiments. How it is done: as §1, §2, §3
The subject of data set [4] is non-small cell lung adenocarcinoma A549. Nature of the data set: MTT cell viability assay, A549. Type of data set: cell-based, human. As to conditions: for IC50: MTT, 48 h incubation, mean ± SD of at least three experiments. The method, then:
as §1, §2, §3

Data set [5] has as its system HeLa cells. Nature of the data set: ROS production, DCF fluorescence (H2DCF-DA) flow cytometry. Type of data set: cell-based, human. The settings on record: 48 h incubation. How it is done:
FIG. 4. ROS production induced by TDMQ20 in HeLa cells, detected by DCF fluorescence after 48 h of incubation. ***p<0.001, ****p<0.0001.
The most straightforward technique for measuring the production of […] in cells is the use of the cell permeable fluorescent probe 2′,7′-dichlorodihydrofluorescein diacetate (H2DCF-DA). In the presence of ROS, predominantly H2O2, H2DCF is rapidly oxidized to 2′,7′-dichlorofluorescein (DCF) which is highly fluorescent, with excitation and emission wavelengths of 498 and 522 nm, respectively. The stained cells were analyzed by flow cytometry and analyzed by the FlowJo v.Xsoftware.

Data set [6] has as its system HeLa cells. Nature of the data set: Mitochondrial membrane potential, JC-1 staining flow cytometry. Type of data set: cell-based, human. The settings on record: increasing concentration of TDMQ20, 48 h. The source says: FIG. 5. (A) Red/green fluorescence of HeLa cells treated with various concentrations of TDMQ20, and stained by JC-1, as an indirect measure of mitochondrial membrane potential (ΔΨm). Detection by flow cytometry. (B) Histograms presenting data of panel A as mean values of three independent experiments±SD; ****p<0.0001 vs. control.
The higher is the ΔΨm, the more elevated is the red shift of the dye (more aggregates formed); vice-versa, the lower is the ΔΨm of the mitochondria and the lower is the red to green ratio of the fluorescent marker (few aggregates formed). Therefore, the ratio of red/green fluorescence intensities is significant of mitochondrial integrity and function, and mitochondrial depolarization is indicated by a reduction in the red to green fluorescence intensity ratio.
This method was used to evaluate the mitochondrial membrane potential in HeLa cells incubated with various concentrations of TDMQ20 for 48 h, using staining with JC-1, and quantification by flow cytometry treated with the FlowJo v. X software.

The subject of data set [7] is immortalized keratinocyte cell line HaCaT. Kind of data set: MTT cell viability assay, HaCaT (non-cancer reference). Type of data set: cell-based, human. As to conditions: 48 h incubation, non-cancer cells, mean ± SD of at least three experiments. The method, then: as §1, §2, §3
Data set [8] has as its system HeLa cells. Kind of data set: Colony-forming assay. Type of data set: cell-based, human. The settings on record: 14th day after treatment. How it is done:
(A) Representative images of colonies formed by HeLa cells at the 14th day after treatment with increasing concentrations of TDMQ20. (B) Quantitative analysis of this clonogenicity assay. **p<0.01, ****p<0.0001 vs. control. “Control” stands for untreated cells.
Colony-forming assay. The proliferation of HeLa cells exposed to various concentrations of TDMQ20 was evaluated at the 14th day after treatment.

The test system of a further data set is melanoma COLO-829. Kind of data set: MTT cell viability assay, COLO-829. In kind it is cell-based. As to conditions: Homo sapiens, 48 h incubation, mean ± SD of at least three experiments. How it is done:
as §1, §2, §3

SMILES strings stand for the structures.

`CN(C)CCNCCc1ccc2c(Cl)cc(Cl)c(N)c2n1` [TDMQ20]: the IC50 is 38.1 ± 7 µM with metastatic melanoma A375; 14.5 ± 0.8 µM in the data set on cervical cancer HeLa; 14 to 16 µM with cervical cancer HeLa (Homo sapiens, HeLa, 48 h); 16.6 ± 4.7 µM in data set [3]; 14 to 16 µM in data set [3] (Homo sapiens, HepG2, 48 h); 14 to 16 µM in data set [4] (Homo sapiens, A549, 48 h). Besides, the half-inhibitory concentration (IC50) in [4] worked out at 16.2 ± 2.9 µM; in data set [7], 41.1 ± 4.8 µM; in data set [7] (Homo sapiens, HaCaT, 48 h), 41 µM; in the data set with melanoma COLO-829 it was 40.2 ± 4.9 µM. The “HeLa cell migration to close a wound” value in the data set with HeLa cells [1] is given as “significantly inhibited”. The “Total proportion of apoptotic cells (early, late apoptosis, necrosis)” value in the data set on HeLa cells [2] (3.7 μM) is reported as 9%; with HeLa cells [2] (7.3 μM), 15%; in the data set with HeLa cells [2] (14.5 μM), 51%. In data set [4] (lung adenocarcinoma A549 cells), the “Cytotoxic activity relative to the reference drug 5-FU” value is recorded as “four times higher”. Further, the “Fluorescence of DCF, % of the control cells” value with HeLa cells [5] (3.7 μM) is on record as 125%; in the data set with HeLa cells [5] (7.3 μM) it was 138%; with HeLa cells [5] (14.5 μM), 150%. In addition, in the data set with HeLa cells [6], the “JC-1 red/green fluorescence ratio (mitochondrial transmembrane potential ΔΨm)” value was “drastic decrease”. Also, in the data set with HeLa cells [8] (TDMQ20 = 12 μM), the “HeLa cells in colony-forming assay” value is recorded as “not detectable”. Further, the “Number of HeLa cells in cultures (colony-forming ability)” value in the data set with HeLa cells [8] (increasing drug concentration from 1.5 to 12 μM) was “drastically decreased”.

`O=c1[nH]cc(F)c(=O)[nH]1` [5-FU, 5-fluorouracil, reference compound]: the IC50 came out at 68.5 ± 4 µM in the data set on metastatic melanoma A375; 20.3 ± 4.6 µM with cervical cancer HeLa (Homo sapiens, HeLa, 48 h); 46.7 ± 4.7 µM in [3] (Homo sapiens, HepG2, 48 h); 72.6 ± 10 µM in [4] (Homo sapiens, A549, 48 h); 30 µM in data set [7] (Homo sapiens, HaCaT, 48 h); 48.7 ± 0.7 µM in the data set on melanoma COLO-829.

Usually IC50 stands for the concentration at which inhibition is half-maximal. High values mean lower potency, low ones higher potency.
